In brackets after ≈: the same amount, converted by molar mass.
How the values were obtained:
[1] = tested on: CD11b(+) mononuclear cells from wild type mice; experiment: OCL formation by wild type mouse osteoclast precursors, TRACP stain; assay type: cell-based; conditions: 7 days, 50 ng/ml TNFα
Description: FIG. 7A-C: 7A. CFU-Blast colony formation. Human CD34(+) cells were cultured with p62-ZZ inhibitor #3 and 1 ng/ml of rhIL-3 IL-6 and SCF for 7 days. Data are shown as the mean±SD (n=5). FIG. 7B. Human OCL formation. Non-adherent mononuclear cells (2.5×10^7 cells/10-cm dish) derived from human bone marrow samples were cultured in α-MEM containing 10% FCS, 100 pg/ml recombinant human GM-CSF(R & D) for 7 days. Then the cells were collected and plated (cell density is 1.0×10^6 cells/nil) in α-MEM containing 20% horse serum with 1 ng/ml TNFα. Half-media changes were performed twice a week containing various concentrations of the p62-ZZ inhibitor #3. The cultures were incubated for a total of 2 weeks at 37° C. with 5% CO2 and 95% humidity. The osteoclasts were stained with the 23C6 antibody which recognizes CD51/61. Data are shown as the mean±SD (n=5). *P<0.01 compared to vehicle treated cultures. 7C. OCL formation by wild type and p62−/− mouse osteoclast precursors. Data is shown as the mean±SD (n=4). *: P<0.01 compared to no-inhibitor cultures. The effects of p62-ZZ inhibitor #3 on osteoclast formation by p62^−/− OCL precursors were examined to determine the specificity of the effects of the p62-ZZ inhibitor #3 on osteoclast precursors. CDIIb(+) mononuclear cells from wild type and p62″/_mice were used. […] OCLs were scored as TRAP positive cells containing 3 or more nuclei. […]

[2] = tested on: Human CD34(+) mononuclear cells; experiment: CFU-Blast colony formation; assay type: cell-based; conditions: all concentrations, 7 days
Description: FIG. 7A-C: 7A. CFU-Blast colony formation. Human CD34(+) cells were cultured with p62-ZZ inhibitor #3 and 1 ng/ml of rhIL-3 IL-6 and SCF for 7 days. Data are shown as the mean±SD (n=5). FIG. 7B. Human OCL formation. Non-adherent mononuclear cells (2.5×10^7 cells/10-cm dish) derived from human bone marrow samples were cultured in α-MEM containing 10% FCS, 100 pg/ml recombinant human GM-CSF(R & D) for 7 days. Then the cells were collected and plated (cell density is 1.0×10^6 cells/nil) in α-MEM containing 20% horse serum with 1 ng/ml TNFα. Half-media changes were performed twice a week containing various concentrations of the p62-ZZ inhibitor #3. The cultures were incubated for a total of 2 weeks at 37° C. with 5% CO2 and 95% humidity. The osteoclasts were stained with the 23C6 antibody which recognizes CD51/61. Data are shown as the mean±SD (n=5). *P<0.01 compared to vehicle treated cultures. 7C. OCL formation by wild type and p62−/− mouse osteoclast precursors. Data is shown as the mean±SD (n=4). *: P<0.01 compared to no-inhibitor cultures. Whether p62-ZZ inhibitor #3 affects hematopoesis since osteoclast precursors are derived from hematopoietic cells was examined. […] Colonies were scored after 7 days of culture using an inverted microscope.

IL-6 production = experiment: TNF-α induced IL-6 production by marrow stromal cells, ELISA; assay type: cell-based, human
Description: FIG. 5A-B: 5A. VCAM-1 expression using Western blot analysis. Normal human stromal cells were cultured with/without TNF and p62-ZZ inhibitors (#1-6) for 48 hours. The cell lysates were collected and VCAM-1 expression was measured using an anti-VCAM-1 antibody (Santa Cruz). FIG. 5B. IL-6 production by human and mouse marrow stromal cells by ELISA. Normal human and mouse marrow stromal cells were cultured with/without TNFα and p62-ZZ inhibitors (#1-6) for 48 hours. The cell culture media were collected and IL-6 production measured using an IL-6 ELISA kit (R &D). Data are shown as the means (n=2).
Normal human or mouse marrow stromal cells were maintained in 10% FBS-IMDM and treated with p62-ZZ inhibitors (#1-6) for 3 hours. Then TNFα or vehicle was added for 48 hours. Cell lysates were collected and VCAM-1 expression measured by Western blot using an anti-VCAM-1 antibody (Santa Cruz). The culture media were collected and IL-6 production was measured using an IL-6 ELISA kit (R&D Company).

MM1.S cells = experiment: Caspase 9, 7 and 3 cleavage in MM1.S cells, Western blot; assay type: cell-based, human; conditions: 10 μM, after 16 hours
Description: FIG. 9A-C: 9A. […] MM1.S cells were cultured with 10 μM of p62-ZZ antagonist for the indicated time, and then cell lysates were collected. Caspase 9, 7 and 3 were detected by Western blotting using anti-caspase 9, 7 and 3 specific antibodies (Cell Signaling). FIG. 9B. Detection of Apoptosis using the TUNEL reaction with MM1.S cells treated with p62-ZZ antagonist. MM1.S cells were treated with 10/μM of p62-ZZ antagonist #3 for 24 hours and then the cells were collected and mounted on glass slides using the cytospin procedure. Terminal deoxynucleotidyl transferase nick end labeling (TUNEL) reactions were conducted using an In Situ Cell Death Detection Kit (Roche) according to the manufacturer's instructions. The stained cells were analyzed using a fluorescence microscope equipped with standard green filter. FIG. 9C. The p62-ZZ antagonist induced Reactive Oxygen Species in MM1.S cells. MM1.S cells were treated with 10 μM of p62-ZZ antagonist #3 for 6 hours. Cells were collected and stained for Reactive Oxygen Species (ROS) using a Total ROS detection kit (Enzo) according to the manufacturer's instructions. The expression of apoptosis markers in p62-ZZ antagonist treated on 25 MM cells was determined to determine the mechanism action of this antagonist.

Question: What does the source list for `OCCNCc1ccc(OCc2ccccc2)c(OCc2ccccc2)c1` [Compound 3, 2-[[3,4-bis(phenylmethoxy)phenyl]methylamino]ethanol]?
Answer: IC50 ([1]; Mus musculus, Osteoclast, 168 h, read-out: IC50 concentration for OCL formation, wild type cells): 1 ng/mL (≈ 2.75 nM); OCL formation in wild type mice cell cultures ([1]; various concentrations): blocked OCL formation dose dependently; CFU-Blast colony formation [2]: do not inhibit; IL-6 production induced by TNF-α blocked compared to vehicle (IL-6 production; marrow stromal cells, 3 h pre-treatment, TNFα 48 hours): 90%; IL-6 production by TNF-α stimulated normal human stromal cells (result in words) (IL-6 production; normal human stromal cells, FIG. 5B): blocked IL-6 production; cleavage of caspase 9, 7 and 3 (MM1.S cells): induced cleavage
